6 compounds from US11040975B2, “Carbocyclic nucleoside reverse transcriptase inhibitors” (Merck Sharp & Dohme Corp., priority 2017, dated 2021) can be followed below.

In one data set the test system is HIV-1 (H9IIIB virus). The data set can be described thus: Viking assay: antiviral potency in a multiple round HIV-1 infection assay (MT4-GFP cells). Type of data set: cell-based. Conditions: Human immunodeficiency virus 1, MT4-GFP cells, 10% normal human serum; inhibition of reproductive ratio R0; read-out: Viking, IC50 (10% NHS). As to the method:
Assessing Antiviral Potency in a Multiple Round HIV-1 Infection Assay.
HIV-1 replication was monitored using MT4-gag-GFP clone D3 (hereafter designate MT4-GFP), which are MT-4 cells modified to harbor a GFP reporter gene, the expression of which is dependent on the HIV-1 expressed proteins tat and rev. Productive infection of an MT4-GFP cell with HIV-1 results in GFP expression approximately 24h post-infection.
MT4-GFP cells were maintained at 37° C./5% CO2/90% relative humidity in RPMI 1640 supplemented with 10% fetal bovine serum, 100 U/mL penicillin/streptomycin, and 400 μg/mL G418 to maintain the reporter gene. For infections, MT4-GFP cells were placed in the same medium lacking G418 and infected overnight with H9IIIB virus at an approximate multiplicity of infection of 0.01 in the same incubation conditions. Cells were then washed and re-suspended in either RPMI 1640 containing 10% or 50% normal human serum at 1.6×10^5 cells/mL. Compound plates were prepared by dispensing compounds dissolved in DMSO into wells of 384 well poly D lysine-coated plates ([…]) using an ECHO acoustic dispenser. Each compound was tested in a 10 point serial 3-fold dilution (typical final concentrations: 8.4 μM-0.43 nM). Controls included no inhibitor (DMSO only) and a combination of three antiviral agents (efavirenz, indinavir, and an integrase strand transfer inhibitor at final concentrations of 4 μM each). Cells were added (50 μL/well) to compound plates and the infected cells were maintained at 37° C./5% CO2/90% relative humidity.
Infected cells were quantified at two time points, ˜48h and ˜72h post-infection, by counting the number of green cells in each well using an Acumen eX3 scanner. The increase in the number of green cells over ˜24h period gives the reproductive ratio, R0, which is typically 5-15 and has been shown experimentally to be in logarithmic phase (data not shown). Inhibition of R0 is calculated for each well, and IC50s determined by non-linear 4-parameter curve fitting.

The test system of another data set is MT4-GFP cells. The data set is described as follows: CTG assay: cytotoxicity in CellTiter-Glo Luminescent Cell Viability Assay. Type of data set: cell-based. Conditions: CC50, MT4-GFP cells, 10% normal human serum, 48h incubation. As to the method: Assessing Cytotoxicity in CellTiter-Glo Luminescent Cell Viability Assay (CTG).
MT4-GFP cells were seeded in RPMI 1640 supplemented with 10% fetal bovine serum, 100 U/mL penicillin/streptomycin overnight at 37° C./5% CO2/90% relative humidity. Cells were then washed and resuspended in RPMI 1640 containing 10% normal human serum at a density of 0.8×10^5 cells/mL. Compound plates were prepared by dispensing compounds dissolved in DMSO into wells of 384 well solid black plates (Corning 3571) using an ECHO acoustic dispenser (0.2 μl/well). Each compound was tested in a 10 point serial 3-fold dilution (final concentrations: 8.4 μM-0.43 nM). Controls included DMSO. Cells were added (50 μL/well) to compound plates and were maintained at 37° C./5% CO2/90% relative humidity. CTG reagent (Promega, G7573) was added to the cell plates after 48h incubation according to the manufacturer's description. Luminescence signals were recorded on EnVision plate reader (PerkinElmer). CC50s were determined by non-linear 4-parameter curve fitting. The resulting data is shown in Table 3 with the marketed HIV nucleoside reverse transcriptase inhibitor AZT (azidothymidine, zidovudine) included as a control.
A general note: ATP-based viability assays read luminescence as a measure of living cells.

For the compound `C#C[C@]1(CO)C[C@@H](n2cnc3c(N)nc(F)nc32)C[C@@H]1O` (racemic) [Example (+/−) 13, (1S,2S,4R)-4-(6-amino-2-fluoro-9H-purin-9-yl)-2-ethynyl-2-(hydroxymethyl)cyclopentan-1-ol and (1R,2R,4S)-4-(6-amino-2-fluoro-9H-purin-9-yl)-2-ethynyl-2-(hydroxymethyl)cyclopentan-1-ol], the IC50 – broadly, the concentration that inhibits the measured activity by half – with HIV-1 (H9IIIB virus) worked out at 5.43 µM. This compound also yielded a CTG in the data set with MT4-GFP cells above 42 µM.
For `C#C[C@]1(CO)C[C@@H](n2cnc3c(Cl)nc(N)nc32)C[C@@H]1O` (racemic) [Example (+/−) 14, (1S,2S,4R)-4-(2-amino-6-chloro-9H-purin-9-yl)-2-ethynyl-2-(hydroxymethyl)cyclopentan-1-ol and (1R,2R,4S)-4-(2-amino-6-chloro-9H-purin-9-yl)-2-ethynyl-2-(hydroxymethyl)cyclopentan-1-ol], the IC50 with HIV-1 (H9IIIB virus) is 5.64 µM. In the data set on MT4-GFP cells, this compound returned a CTG above 42 µM.
Take `C#C[C@]1(CO)C[C@@H](n2cnc3c(Cl)nc(Cl)nc32)C[C@@H]1O` (racemic) [Example (+/−) 17, (1S,2S,4R)-4-(2,6-dichloro-9H-purin-9-yl)-2-ethynyl-2-(hydroxymethyl)cyclopentan-1-ol and (1R,2R,4S)-4-(2,6-dichloro-9H-purin-9-yl)-2-ethynyl-2-(hydroxymethyl)cyclopentan-1-ol]: the IC50 in the data set on HIV-1 (H9IIIB virus) stood at 17.4 µM. The compound also registered a CTG with MT4-GFP cells of 19.9 µM.
Regarding `C#C[C@]1(CO)C[C@@H](n2cnc3c(N)nc(Cl)nc32)C[C@@H]1O` (racemic) [Example (+/−) 18, (1S,2S,4R)-4-(6-amino-2-chloro-9H-purin-9-yl)-2-ethynyl-2-(hydroxymethyl)cyclopentan-1-ol and (1R,2R,4S)-4-(6-amino-2-chloro-9H-purin-9-yl)-2-ethynyl-2-(hydroxymethyl)cyclopentan-1-ol], the half-inhibitory concentration (IC50) in the data set with HIV-1 (H9IIIB virus) was 19 µM. Moreover, the CTG in the data set on MT4-GFP cells was above 42 µM.
The matching figures for `C#C[C@@]1(CO)C[C@H](n2cnc3c(N)nc(Cl)nc32)C[C@H]1O` (single isomer, unassigned) [Example 18A, (1S,2S,4R)-4-(6-amino-2-chloro-9H-purin-9-yl)-2-ethynyl-2-(hydroxymethyl)cyclopentan-1-ol or (1R,2R,4S)-4-(6-amino-2-chloro-9H-purin-9-yl)-2-ethynyl-2-(hydroxymethyl)cyclopentan-1-ol]: 25.2 µM and above 42 µM.
In the case of `Cc1cn([C@H]2C[C@H](N=[N+]=[N-])[C@@H](CO)O2)c(=O)[nH]c1=O` [AZT, 3′-azido-3′-deoxythymidine, reference compound], the IC50 with HIV-1 (H9IIIB virus) is 0.037 µM. For the same compound, the “CTG” value with MT4-GFP cells is above 8.4 µM.
